Test results: PubChem BioAssay (NCI)
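Compound exposure: 48 hours, 5 concentrations, 96-well plates. TGI: total growth inhibition.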

Assays:
Experiment in all cases: inhibition of tumour cell growth, NCI panel, 48 h
786-0 renal = test system: 786-0 renal
A498 renal = test system: A498 renal
A549 NSCLC = test system: A549 NSCLC
ACHN renal = test system: ACHN renal
CAKI-1 renal = test system: CAKI-1 renal
CCRF-CEM leukemia = test system: CCRF-CEM leukemia
COLO 205 colon = test system: COLO 205 colon
DLD-1 colon = test system: DLD-1 colon
DMS 114 small cell lung = test system: DMS 114 small cell lung
DMS 273 small cell lung = test system: DMS 273 small cell lung
EKVX NSCLC = test system: EKVX NSCLC
HCC-2998 colon = test system: HCC-2998 colon
HCT-116 colon = test system: HCT-116 colon
HCT-15 colon = test system: HCT-15 colon
HL-60(TB) leukemia = test system: HL-60(TB) leukemia
HOP-18 NSCLC = test system: HOP-18 NSCLC
HOP-62 NSCLC = test system: HOP-62 NSCLC
HT29 colon = test system: HT29 colon
IGROV1 ovarian = test system: IGROV1 ovarian
K-562 leukemia = test system: K-562 leukemia
KM12 colon = test system: KM12 colon
KM20L2 colon = test system: KM20L2 colon
LOX IMVI melanoma = test system: LOX IMVI melanoma
M14 melanoma = test system: M14 melanoma
M19-MEL melanoma = test system: M19-MEL melanoma
MALME-3M melanoma = test system: MALME-3M melanoma
MOLT-4 leukemia = test system: MOLT-4 leukemia
NCI-H226 lung = test system: NCI-H226 lung
NCI-H23 lung = test system: NCI-H23 lung
NCI-H460 lung = test system: NCI-H460 lung
NCI-H522 lung = test system: NCI-H522 lung
OVCAR-3 ovarian = test system: OVCAR-3 ovarian
OVCAR-4 ovarian = test system: OVCAR-4 ovarian
OVCAR-5 ovarian = test system: OVCAR-5 ovarian
OVCAR-8 ovarian = test system: OVCAR-8 ovarian
RPMI-8226 leukemia = test system: RPMI-8226 leukemia
RXF 393 renal = test system: RXF 393 renal
RXF-631 renal = test system: RXF-631 renal
SF-268 CNS = test system: SF-268 CNS
SF-295 CNS = test system: SF-295 CNS
SF-539 CNS = test system: SF-539 CNS
SK-MEL-2 melanoma = test system: SK-MEL-2 melanoma
SK-MEL-28 melanoma = test system: SK-MEL-28 melanoma
SK-MEL-5 melanoma = test system: SK-MEL-5 melanoma
SK-OV-3 ovarian = test system: SK-OV-3 ovarian
SN12C renal = test system: SN12C renal
SNB-19 CNS = test system: SNB-19 CNS
SNB-75 CNS = test system: SNB-75 CNS
SNB-78 CNS = test system: SNB-78 CNS
SR leukemia = test system: SR leukemia
TK-10 renal = test system: TK-10 renal
U251 CNS = test system: U251 CNS
UACC-257 melanoma = test system: UACC-257 melanoma
UACC-62 melanoma = test system: UACC-62 melanoma
UO-31 renal = test system: UO-31 renal
XF 498 CNS = test system: XF 498 CNS

Molecule `N#CC12CCC(O)C(CC1)C2=O` (stereo unspecified) has a TGI (786-0 renal) greater than 100 µM, a TGI (A498 renal) greater than 100 µM and a TGI (A549 NSCLC) greater than 100 µM. The TGI (ACHN renal) was greater than 100 µM, the TGI (CAKI-1 renal) was greater than 100 µM and the TGI (CCRF-CEM leukemia) was greater than 100 µM. For the same molecule, the TGI (COLO 205 colon) was greater than 100 µM, the TGI (DLD-1 colon) was greater than 100 µM and the TGI (DMS 114 small cell lung) was 36 µM. The TGI (DMS 273 small cell lung) was greater than 100 µM, the TGI (EKVX NSCLC) was greater than 100 µM and the TGI (HCC-2998 colon) was greater than 100 µM. For the same molecule, the TGI (HCT-116 colon) was greater than 100 µM, the TGI (HCT-15 colon) was greater than 100 µM and the TGI (HL-60(TB) leukemia) was greater than 100 µM. For the same molecule, the TGI (HOP-18 NSCLC) was greater than 100 µM, the TGI (HOP-62 NSCLC) was greater than 100 µM and the TGI (HT29 colon) was greater than 100 µM. For the same molecule, the TGI (IGROV1 ovarian) was greater than 100 µM, the TGI (K-562 leukemia) was greater than 100 µM and the TGI (KM12 colon) was greater than 100 µM. It also gave a TGI (KM20L2 colon) greater than 100 µM, a TGI (LOX IMVI melanoma) of 39.3 µM and a TGI (M14 melanoma) greater than 100 µM. It also gave a TGI (M19-MEL melanoma) greater than 100 µM, a TGI (MALME-3M melanoma) greater than 100 µM and a TGI (MOLT-4 leukemia) greater than 100 µM. The TGI (NCI-H226 lung) was greater than 100 µM, the TGI (NCI-H23 lung) was greater than 100 µM and the TGI (NCI-H460 lung) was greater than 100 µM. It also gave a TGI (NCI-H522 lung) greater than 100 µM, a TGI (OVCAR-3 ovarian) greater than 100 µM and a TGI (OVCAR-4 ovarian) greater than 100 µM. The TGI (OVCAR-5 ovarian) was greater than 100 µM, the TGI (OVCAR-8 ovarian) was greater than 100 µM and the TGI (RPMI-8226 leukemia) was 57.1 µM. The TGI (RXF 393 renal) was greater than 100 µM, the TGI (RXF-631 renal) was greater than 100 µM and the TGI (SF-268 CNS) was greater than 100 µM. For the same molecule, the TGI (SF-295 CNS) was greater than 100 µM, the TGI (SF-539 CNS) was greater than 100 µM and the TGI (SK-MEL-2 melanoma) was greater than 100 µM. It also gave a TGI (SK-MEL-28 melanoma) greater than 100 µM, a TGI (SK-MEL-5 melanoma) greater than 100 µM and a TGI (SK-OV-3 ovarian) greater than 100 µM. The TGI (SN12C renal) was greater than 100 µM, the TGI (SNB-19 CNS) was greater than 100 µM and the TGI (SNB-75 CNS) was greater than 100 µM. The TGI (SNB-78 CNS) was greater than 100 µM, the TGI (SR leukemia) was 77.3 µM and the TGI (TK-10 renal) was greater than 100 µM. It also gave a TGI (U251 CNS) greater than 100 µM, a TGI (UACC-257 melanoma) greater than 100 µM and a TGI (UACC-62 melanoma) greater than 100 µM. It also gave a TGI (UO-31 renal) greater than 100 µM and a TGI (XF 498 CNS) greater than 100 µM.
